What was measured:
[1] = test system: plasma proteins; assay: Protein resistance to vortexing; details: for Alk. Phos / LDH / SGOT / SGPT / fIX / fV / fVIII / fibrinogen: plasma, Na citrate 0.4%, lysine citrate 2.0%; for Alkaline phosphatase, % of its initial value / LDH, % of initial value / SGOT, % of initial value / SGPT, % of initial value / factor IX, % of initial value / factor V, % of initial value / factor VIII, % of initial value / fibrinogen, % of initial value: sodium citrate 0.4%, lysine citrate 2%
Protocol: As the basic anticoagulant experiments were carried out, additional advantages to the new anticoagulation system became apparent. The inventor has long believed that the effects of citrate on proteins, and in particular plasma proteins, goes beyond mere chelation of calcium. As mentioned above, citrate complexes with or otherwise potentiates the precipitation of plasma proteins. […] Soluble protein can be denatured by vigorous mixing and the resulting exposure to the air-water interfaces present in foam. […]. Two ten ml tubes of each plasma were prepared and held at room temperature for thirty minutes. A “pretreatment” sample (Pre) was removed from each tube and set aside. Then the tubes were subjected to vigorous mixing using a vortex (rotary) mixer for 30 min.
[…]. […] […].

[2] = test system: clot formation; assay: Clotting times (PT, PTT) of anticoagulated whole blood; assay type: biochemical
Protocol: In this experiment whole blood (an aliquot of which clotted within 10 minutes without anticoagulant) was modified by adding a number of different anticoagulant compositions. Sodium citrate was used as an anticoagulant at 0.65%, 0.75% and 0.9% by weight. These are all higher citrate levels than the usual 0.4% by weight. Amino acid citrates (lysine or arginine) were used at 0.65%, 0.75% and 0.9% by weight based on the weight of the citric acid. The amino acid counterion was used in sufficient quantity to adjust the pH as explained above.

[3] = test system: platelets; assay: Platelet preservation in platelet rich plasma with 1% citrate (lysine citrate); assay type: cell-based; details: PRP 1% citrate, room temperature
Protocol: In the experiment anticoagulated blood (0.4% citrate by weight) was centrifuged to produce platelet Rich Plasma (PRP). To test samples of PRP citric acid stock solution containing sufficient lysine to bring the solution pH to 7.0 was added to increase the citrate concentration to 1% by weight. Following this addition the pH of the mixture was 6.7. It will be apparent to one of skill in the art that the precise ratio of basic amino acid to citrate can be altered to adjust the pH of the either the stock solution or the final blood mixture. One sample of original PRP was used as the Normal Control, and one sample of the lysine citrate PRP was used as the Citrate Control. One sample of original PRP was inoculated with cultured Staphylococcus epidermidis to a final concentration of about 10 cfu/ml—this formed the Spiked Normal. […] The samples were incubated at room temperature for five days. Each day the number of platelets in each sample was counted; each sample was also tested for LDH (lactate dehydrogenase) and for the ability to induce a clot. Following the tests an aliquot of each sample was subcultured on nutrient agar and incubated under growth conditions.

[4] = after vortexing, 2% sodium citrate (similar experiment, data not shown)
[5] = Day 1, spiked with Staphylococcus epidermidis about 10 cfu/ml
[6] = Day 2, spiked with Staphylococcus epidermidis about 10 cfu/ml
[7] = Day 3, spiked with Staphylococcus epidermidis about 10 cfu/ml
[8] = Day 4, spiked with Staphylococcus epidermidis about 10 cfu/ml
[9] = Day 5, spiked with Staphylococcus epidermidis about 10 cfu/ml

## O=C([O-])CC(O)(CC(=O)[O-])C(=O)[O-].[Na+].[Na+].[Na+] [Na Citrate, sodium citrate, reference compound]
[1]; Post 30 min vortexing
  Alk. Phos: 15 IU/.L
  LDH: 33 IU/L
  SGOT: 1 IU/L
  SGPT: 1 IU/L
  fIX: 44%
  fV: 21%
  fVIII: 32%
  fibrinogen: 106 mg/dL
[1]; Pre vortexing
  Alk. Phos: 27 IU/.L
  LDH: 100 IU/L
  SGOT: 15 IU/L
  SGPT: 29 IU/L
  fIX: 103%
  fV: 98%
  fVIII: 102%
  fibrinogen: 258 mg/dL
[1]; [4]
  LDH, % of the initial value: 48%
  SGOT, % of the initial value: 33%
  SGPT, % of the initial value: 32%
  alkaline phosphatase, % of the initial value: 80%
  factor IX, % of the initial value: 62%
  factor V, % of the initial value: 52%
  factor Viii, % of the initial value: 57%
  fibrinogen, % of the initial value: 69%
[1]; after vortexing
  Alkaline phosphatase, % of its initial value: 55%
  LDH, % of initial value: 33%
  SGOT, % of initial value: 6.6%
  SGPT, % of initial value: 3.4%
  factor IX, % of initial value: 43%
  factor V, % of initial value: 21%
  factor VIII, % of initial value: 31%
  fibrinogen, % of initial value: 4%
[2]; anticoagulant 0.65 wgt %
  PT (4 hrs at RT): 13.1 s
  PTT (4 hrs at RT): 28.7 s
[2]; anticoagulant 0.75 wgt %
  PT (4 hrs at RT): 14.1 s
  PTT (4 hrs at RT): 31.5 s
[2]; anticoagulant 0.90 wgt %
  PT (4 hrs at RT): 21.2 s
  PTT (4 hrs at RT): 35.0 s

## NCCCC[C@H](N)C(=O)O.O=C(O)CC(O)(CC(=O)O)C(=O)O [Lysine Citrate, lysine citrate]
[1]; Post 30 min vortexing
  Alk. Phos: 22 IU/.L
  LDH: 80 IU/L
  SGOT: 11 IU/L
  SGPT: 24 IU/L
  fIX: 76%
  fV: 55%
  fVIII: 57%
  fibrinogen: 198 mg/dL
[1]; Pre vortexing
  Alk. Phos: 25 IU/.L
  LDH: 99 IU/L
  SGOT: 12 IU/L
  SGPT: 26 IU/L
  fIX: 98%
  fV: 95%
  fVIII: 97%
  fibrinogen: 247 mg/dL
[1]; after vortexing
  Alkaline phosphatase, % of its initial value: 88%
  LDH, % of initial value: 80%
  SGOT, % of initial value: 91.6%
  SGPT, % of initial value: 92%
  factor IX, % of initial value: 77.6%
  factor V, % of initial value: 58%
  factor VIII, % of initial value: 59%
  fibrinogen, % of initial value: 80%
[3]; [5]
  Clot time: 29 s
  Count (platelets): 2.99 × 10^5 per μl
  LDH: 131 IU/L
[3]; Day 1, unspiked
  Clot time: 35 s
  Count (platelets): 3.2 × 10^5 per μl
  LDH: 133 IU/L
[3]; [6]
  Clot time: 32 s
  Count (platelets): 3.0 × 10^5 per μl
  LDH: 130 IU/L
[3]; Day 2, unspiked
  Clot time: 30 s
  Count (platelets): 3.1 × 10^5 per μl
  LDH: 133 IU/L
[3]; [7]
  Clot time: 30 s
  Count (platelets): 3.0 × 10^5 per μl
  LDH: 133 IU/L
[3]; Day 3, unspiked
  Clot time: 32 s
  Count (platelets): 3.3 × 10^5 per μl
  LDH: 134 IU/L
[3]; [8]
  Clot time: 30 s
  Count (platelets): 3.2 × 10^5 per μl
  LDH: 131 IU/L
[3]; Day 4, unspiked
  Clot time: 35 s
  Count (platelets): 3.5 × 10^5 per μl
  LDH: 133 IU/L
[3]; [9]
  Clotting time: 32 s
  Count (platelets): 3.0 × 10^5 per μl
  LDH: 131 IU/L
[3]; Day 5, unspiked
  Clotting time: 33 s
  Count (platelets): 3.1 × 10^5 per μl
  LDH: 135 IU/L
[2]; anticoagulant 0.65 wgt %
  PT (4 hrs at RT): 14.1 s
  PTT (4 hrs at RT): 33.8 s
[2]; anticoagulant 0.75 wgt %
  PT (4 hrs at RT): 16.6 s
  PTT (4 hrs at RT): 33.2 s
[2]; anticoagulant 0.90 wgt %
  PT (4 hrs at RT): 36.5 s
  PTT (4 hrs at RT): 44.4 s

Reference: US20090123907A1 (priority 2004, published 2009)
